Laboratory results taken from US12570606B2, “Myeloperoxidase imaging agents” (The General Hospital Corporation, priority 2016, dated 2026).
Counter-ions that a name gives are not always drawn. Like-named read-outs stand apart in the source and are kept apart here.

Assays:
purified human MPO = molecular target: T1, purified human MPO (Homo sapiens, UniProt P05164); experiment: Fluorescence molecular tomography (FMT) of MPO embedded in matrigel, sensitivity; format: in vivo, mouse; conditions: 2 nmol i.v. then SA-647, matrigel in thigh
T1 construct: purchased Lee Biosolutions, St. Louis, Mo
T1 sequence (P05164 49-745): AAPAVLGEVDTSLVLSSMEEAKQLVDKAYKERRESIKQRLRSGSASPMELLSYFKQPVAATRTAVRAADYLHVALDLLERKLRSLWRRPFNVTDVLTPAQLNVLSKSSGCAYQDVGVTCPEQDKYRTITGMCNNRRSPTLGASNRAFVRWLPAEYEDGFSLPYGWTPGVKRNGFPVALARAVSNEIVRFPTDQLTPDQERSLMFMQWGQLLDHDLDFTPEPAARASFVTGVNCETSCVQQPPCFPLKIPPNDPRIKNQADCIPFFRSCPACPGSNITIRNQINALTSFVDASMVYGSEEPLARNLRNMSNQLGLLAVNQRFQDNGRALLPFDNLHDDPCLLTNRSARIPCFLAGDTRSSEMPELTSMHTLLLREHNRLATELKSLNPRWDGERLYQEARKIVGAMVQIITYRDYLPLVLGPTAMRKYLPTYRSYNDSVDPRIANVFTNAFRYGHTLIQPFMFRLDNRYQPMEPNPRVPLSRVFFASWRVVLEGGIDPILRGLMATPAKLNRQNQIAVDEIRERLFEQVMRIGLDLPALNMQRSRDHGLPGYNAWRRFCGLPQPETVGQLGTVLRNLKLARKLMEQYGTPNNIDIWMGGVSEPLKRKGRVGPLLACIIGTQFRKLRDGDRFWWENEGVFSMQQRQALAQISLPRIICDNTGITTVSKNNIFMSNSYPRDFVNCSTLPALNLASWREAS
Excerpt: (§1) Four to ten weeks old female C57BL/6J or MPO-knockout mice (from Jackson Laboratories, Bar Harbor, Me.) were used for all animal experiments. Mice were fed biotin free diet for 5 days before imaging with fluorescence molecular tomography (FMT) or fluorescence […] imaging (FRI).
To validate sensitivity of the Compound 3, different concentrations of purified human MPO (Lee Biosolutions, St. Louis, Mo.) and glucose oxidase (GOX, as a H2O2 donor, Affymetrix, Santa Clara, Calif.) were embedded in a mixture of matrigel (BD Bioscience, San Jose, Calif.) and minimal essential medium (MEM, Corning, Corning, N.Y.), and injected 400 μL of this mixture subcutaneously into the ventral aspect of the thigh. After 30 min, 2 nmol of Compound 3 in 100 μL phosphate buffered saline (PBS) was injected intravenously. One hour later, 25 μL of streptavidin AlexaFluor-647 (2 mg/mL, SA-647, Invitrogen, Carlsbad, Calif.) was injected intravenously, and FMT was performed every 15 minutes for a total of 60 minutes. Mice were imaged on a dedicated FMT system (Perkin Elmer, Waltham, Mass.) at 635 nm excitation and 655 nm emission.

MPO activity [1] = molecular target: T2, MPO activity (Mus musculus, UniProt P11247); experiment: Bacterial cellulitis (Streptococcus pneumoniae), in vivo FRI of neutrophil extracellular traps
T2 construct: from tissue; host or cells: C57Bl/6J mice: PMA-treated hind-paw, salmonella brain abscess (slices and frozen sections), S. pneumoniae cellulitis of the thigh
T2 sequence (P11247 139-718): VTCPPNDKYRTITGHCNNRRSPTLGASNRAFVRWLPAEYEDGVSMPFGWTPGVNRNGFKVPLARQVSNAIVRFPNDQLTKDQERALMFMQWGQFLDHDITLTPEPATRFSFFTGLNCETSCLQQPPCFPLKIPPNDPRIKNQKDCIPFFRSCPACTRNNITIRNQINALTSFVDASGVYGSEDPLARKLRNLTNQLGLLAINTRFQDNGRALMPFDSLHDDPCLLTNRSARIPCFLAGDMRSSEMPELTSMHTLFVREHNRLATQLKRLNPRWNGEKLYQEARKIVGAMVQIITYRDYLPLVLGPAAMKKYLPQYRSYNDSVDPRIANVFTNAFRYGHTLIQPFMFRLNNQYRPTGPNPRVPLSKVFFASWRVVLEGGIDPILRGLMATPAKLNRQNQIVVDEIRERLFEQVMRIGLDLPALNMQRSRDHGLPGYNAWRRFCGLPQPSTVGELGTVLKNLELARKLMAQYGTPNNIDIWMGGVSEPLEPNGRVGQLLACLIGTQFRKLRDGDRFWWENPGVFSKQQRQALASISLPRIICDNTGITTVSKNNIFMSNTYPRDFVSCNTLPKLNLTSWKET
Method: Female C57Bl/6J mice were injected subcutaneously at the dorsal aspect of the thigh with 10^8 CFU of Streptococcus pneumonia (SPn, ATCC #6303) to induce bacterial cellulitis. 6 hours after induction, mice were injected intravenously with 2 nmol of […]. 1 hour later, 2.5 μg Strepavidin-AlexaFluor-647 were injected intravenously to bind to the biotinylated Compound 3. To distinguish neutrophil granule release (where MPO and other granule proteins are secreted into the phagosome or extracellular space) from NET formation (where chromatin strands with MPO are released by neutrophils), 1 μg of the membrane-impermeable DNA dye Sytox Green (Invitrogen) was injected intravenously at the same time. Mice then underwent in vivo imaging using a dedicated FRI system as described above in Example 11. AlexaFluor-647 bound to MPO-sensor was detected at 595-635 nm excitation and 675/50 nm emission. Sytox Green was detected at 460-490 nm excitation and 530/40 nm emission.

MPO activity [2] = experiment: Irritant contact dermatitis (PMA) in vivo FRI; set-up: species or system mouse
Method: Female C57Bl/6J (wildtype, Jackson laboratories, Bar Harbor, Me.) and MPO-knockout (KO, Jackson laboratories) mice were treated topically with 0.08 μmol Phorbol 12-myristate 13-acetate (PMA, Sigma, St. Louis, Mo.) on one hind-paw and with vehicle on the other to induce irritant contact dermatitis. This model is well described in the literature and triggers rapid inflammation with influx of neutrophils into the skin. 6 hours after induction, mice were injected intravenously with either 2 nmol of Compound 3 or the non-specific analogue, Compound 18. 1 hour later, 2.5 μg SA-647 was injected intravenously to bind to the biotinylated Compound 3. Mice underwent in vivo imaging using a dedicated in vivo FRI system as described above in Example 11.

MPO activity [3] = molecular target: T2, MPO activity; experiment: Brain abscess (salmonella), ex vivo FRI of coronal brain slices; format: in vivo; conditions: probe at 23 hours
Method: (§2) Female C57Bl/6J mice were then anesthetized and fixed in a stereotactic head frame (David Kopf Instruments, Tujunga, Calif.). 1-3×10^6 colony forming units (CFU) salmonella bacteria (ATCC #14028) were suspended in 2 μL PBS and slowly injected into the deep frontal white matter (2.0 mm lateral and 1.2 mm anterior to bregma) at a depth of 3.0 mm. 23 hours later, mice were injected intravenously with 2 nmol Compound 3 as above, followed by intravenous injection of SA-647. Mice were then anesthetized with Isoflurane and transcardially perfused with 20 mL of ice cold PBS. Brains were harvested and cut into 1 mm coronal slices using a brain slicer (Harvard Apparatus, Holliston, Mass.) and immediately underwent FRI as described above. Brains from mice injected with salmonella were also embedded in OCT (Sakura, Torrance, Calif.) and snap-frozen in chilled isopentane (Sigma) and stored at […] until sectioning. Serial 6 μm sections were cut on a cryostat (Thermo scientific). Sections were thawed at room temperature for 10-20 minutes and rehydrated in PBS for 10 minutes. Then sections were incubated in blocking buffer (1% horse serum in PBS) for 30 minutes at room temperature, and incubated with MPO specific probe diluted in incubation buffer (1% bovine serum albumin 1% normal donkey serum, 0.3% Triton X-100, and 0.01% sodium azide in PBS) overnight at 4° C. […]

MPO [4] = molecular target: T3, MPO (Mus musculus, UniProt P11247); experiment: CNR of Compound 3 in dermatitis, CNS abscess and cellulitis models; format: in vivo; set-up: from tissue; conditions: detection of dermatitis
T3 sequence (P11247 139-718): T2 sequence (P11247 139-718)

MPO activity [5] = molecular target: T2, MPO activity; experiment: Staining of fresh-frozen ex vivo brain sections with Compound 3 and SA-647; conditions: Compound 3 followed by SA-647
Method: as §2

MPO [6] = molecular target: T4, MPO (Homo sapiens, UniProt P05164); experiment: Fluorescence reflectance imaging (FRI) of GOX/MPO/ABAH in matrigel, specificity; format: in vivo, mouse; conditions: 2 nmol i.v. then SA-647
T4 sequence (P05164 49-745): T1 sequence (P05164 49-745)
Excerpt: as §1

MPO [7] = molecular target: T4, MPO; experiment: In vitro color change (oligomerization) with MPO; format: biochemical; conditions: 2 mM, 37° C., 1 hr
Method: (§3) Each vial contains 2 mM of ^19F compound 9 in PBS (150 uL, 5% DMSO) and the following agents, and was incubated at 37° C. for 1 hr: • Vial 1: control (2 mM 19F […] only) • Vial 2: Glucose (6 μL, 1M), GOX (4 μL, 1 mg/mL); • Vial 3: H2O2 (2 μL), HRP (horseradish peroxidase, 1 μL); • Vial 4: H2O2(2 μL), MPO (10 μL): • Vial 5: H2O2 (2 μL), MPO (10 μL);

[8] = system: HRP (horseradish peroxidase); experiment: In vitro color change (oligomerization) with horseradish peroxidase; format: biochemical; conditions: Vial 3: H2O2, HRP; 2 mM, 37° C., 1 hr
Method: as §3

[9] = Solubility of the hydrochloric acid salt; format: physicochemical; conditions: hydrochloric acid salt after Boc de-protection with 1M HCl
MPO [10] = molecular target: T4, MPO; conditions: in vitro; cited from earlier work
MPO [11] = molecular target: T4, MPO; set-up: host or cells: transgenic mice overexpressing human MPO; conditions: in vivo, transgenic mice with overexpression of human MPO; cited from earlier work

Q: With O=C(CCCC[C@@H]1SC[C@@H]2NC(=O)N[C@@H]21)N[C@@H](Cc1c[nH]c2ccc(O)cc12)C(=O)NCCc1c[nH]c2ccc(O)cc12 [Compound 3, N—((S)-3-(5-hydroxy-1H-indol-3-yl)-1-((2-(5-hydroxy-1H-indol-3-yl)ethyl)amino)-1-oxopropan-2-yl)-5-((3aS,4S,6aR)-2-oxohexahydro-1H-thieno[3,4-d]imidazol-4-yl)pentanamide] as the molecule, how does the “FMT fluorescence signal versus MPO concentration” value (purified human MPO) read?
A: linear increase in signal

Q: What about the “Fluorescence signal, side injected with PBS” value (MPO activity [1]; contralateral thigh) of the same molecule?
A: 49.4±15.5 RFUs

Q: What about the “Fluorescence signal, side injected with SPn” value (MPO activity [1]; thigh, 6 hours after induction) of the same molecule?
A: 212.5±22.9 RFU

Q: And the “Fluorescence intensity, PMA-treated hind-paw” value (MPO activity [2]; MPO-KO mice)?
A: 36.9±9.8 RFU

Q: What about the “Fluorescence intensity, vehicle-treated hind-paw” value (MPO activity [2]; MPO-KO mice) of the same molecule?
A: 43.9±10.8 RFU

Q: What about the “Fluorescence intensity, PMA-treated hind-paw” value (MPO activity [2]; wildtype mice) of the same molecule?
A: 130.5±4.7 RFU

Q: And the “Fluorescence intensity, vehicle-treated hind-paw” value (MPO activity [2]; wildtype mice)?
A: 34.4±8.6 RFU

Q: And the “Fluorescence intensity, contralateral hemisphere (mean value)” value (MPO activity [3])?
A: 10972 RFU

Q: And the “Fluorescence intensity, ipsilateral hemisphere (mean value)” value (MPO activity [3])?
A: 43242 RFU

Q: And the CNR (MPO [4])?
A: approximately 4

Q: What about the “Fluorescent signal on abscess and control sections” value (MPO activity [5]) of the same molecule?
A: increased fluorescent signal consistent with MPO activity in the ipsilateral hemisphere but not the contralateral hemisphere

Q: And the “FRI fluorescence signal in absence of both MPO and GOX” value (MPO [6])?
A: no appreciable fluorescence

Q: And the “FRI fluorescence signal with MPO and GOX in matrigel” value (MPO [6])?
A: increased fluorescent signal

Q: What about the “FRI fluorescence signal with MPO but without GOX” value (MPO [6]) of the same molecule?
A: no fluorescence was detectible

Q: For O=C(Cc1c[nH]c2ccc(O)cc12)N[C@@H](Cc1c[nH]c2ccc(O)cc12)C(=O)NCCOCCOCCF [Compound 8, (S)—N-(2-(2-(2-fluoroethoxy)ethoxy)ethyl)-3-(5-hydroxy-1H-indol-3-yl)-2-(2-(5-hydroxy-1H-indol-3-yl)acetamido)propanamide], which Color change (MPO [7]; Vial 2: Glucose, GOX, no MPO) is on record?
A: no color change

Q: And the Color change (MPO [7]; Vials 4 and 5: H2O2, MPO)?
A: turned to yellow or brown

Q: What about the Color change [8] of the same molecule?
A: turned to yellow or brown

Q: Which Solubility [9] does the source give for CN(C)CCCC[C@H](NC(=O)[C@H](Cc1c[nH]c2ccc(O)cc12)NC(=O)Cc1c[nH]c2ccc(O)cc12)C(=O)NCCOCCOCC[18F] [Example 18, (S)-6-(dimethylamino)-N-(2-(2-(2-fluoro-^18F)ethoxy)ethoxy)ethyl)-2-((S)-3-(5-hydroxy-1H-indol-3-yl)-2-(2-(5-hydroxy-1H-indol-3-yl)acetamido)propanamido)hexanamide hydrochloric acid salt] here?
A: increased solubility

Q: Which CNR (MPO [10]) does the source give for “sulfonaphthoaminophenyl fluorescein [SNAPF]” here?
A: around 1.4

Q: What about the CNR (MPO [11]) of the same molecule?
A: ~1.6
